{"source": "PubChem BioAssay AID1963833", "about": "(Molecular Pharmacology Branch, DTP, NCI, 2024);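 also: spheroids exposed to compounds for seven days before readout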;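 as to viability, T/C: 100% = DMSO vehicle control viability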", "system": "883617-216-R-J1-PDC complex spheroid viability", "experiment": "Anticancer human tumor 883617-216-R-J1-PDC patient-derived bladder carcinoma cell line growth inhibition [POLQ]", "conditions": "for IC50: curve of first compound; for viability, T/C: stronger effect = lower value", "description": "Multicellular complex tumor spheroid response to Polymerase (POL) inhibitors (novobiocin, ART-558, RP6685) in combination with a variety of drugs and investigational agents in selected tumor cell lines\nThe POL inhibitors (novobiocin, ART-558, and RP6685) were evaluated both individually and in combination with standard of care and investigational anticancer small molecules within a complex spheroid model of solid tumors. . Complex spheroids include a stromal component modeled by human endothelial cells (HUVEC) and fibroblasts modeled by human mesenchymal stem cells (MSCs). The concentration ranges selected for each drug and investigational agent were based upon clinically achievable concentrations if the clinical Cmax of the agent was known.\nCompounds. The drugs and investigational agents: novobiocin (NSC847541), ART-558 (NSC835418), RP-6685 (NSC848927), peposertib (NSC802822), ceralasertib (NSC780249), elimusertib (NSC800525), camonsertib (NSC841442), AZD-1390 (NSC803789), olaparib (NSC753686), talazoparib (NSC767125), rucaparib (NSC756644), sotorasib (NSC818433), MRTX-1133 (NSC836407), SN-38 (NSC673596), topotecan (NSC609699), epotoside (NSC141540), doxorubicin (NSC123127), gemcitabine (NSC613327), 5-fluorouracil (NSC19893), paclitaxel (NSC125973), vemurafenib (NSC761431), MSA-2 (NSC828583), SN-011 (NSC837082), adavosertib (NSC754352), prexasertib (NSC758257), carboplatin (NSC241240) and oxaliplatin (NSC266046), were obtained from the National Cancer Institute (NCI) Developmental Therapeutics Program Chemical Repository (21). The FDA-approved anticancer drug set is available from the Developmental Therapeutics Program at https://dtp.cancer.gov/organization/dscb/obtaining/. […] The stock solutions were prepared in dimethyl sulfoxide (DMSO, Sigma-Aldrich, St. Louis, MO, cat. D2650), except for the platinum compounds which were prepared in saline (Quality Biological, Gaithersburg, MD, cat. 114-055-101), at 800-fold the tested concentration and stored at -70 degrees C prior to their use. All drugs and investigational agents were tested over a range starting from a high concentration at or near the clinical Cmax and decreasing in half-log increments. If the clinical Cmax for an agent had not been determined, the highest concentration tested was 10 microM, except for SN-38, which was tested at a high concentration of 1 microM.\nCell Culture. All cells were maintained in an incubator at 37 degrees C and 5% CO2 with 95% humidity. The PDC lines were cultured according to standard operating procedures established by the NCI PDMR (https://pdmr.cancer.gov). Table 3 of the manuscript, lists the cell lines along with the number of the three cell types plated to form the mct-spheroids and media for tumor cell growth. After thawing, all PDC lines, except 997537-175-T-J1-PDC and 415267-285-R-J2-PDC, were cultured in Matrigel-coated flasks prepared with a working solution of 1X Ham's F-12 nutrient mix, without supplementation (Thermo Fisher Scientific, cat. 11765054), 100 U/mL penicillin-streptomycin (Thermo Fisher Scientific, cat. 15140122), and 2.5% Matrigel (Corning Inc., Corning, NY, cat. 354248) for the first three passages. The two PDC lines 997537-175-T-J1-PDC and 415267-285-R-J2-PDC were cultured on uncoated flasks. The 857933-349-R-J2-PDC line was cultured in 6C/Colon 1B media containing advanced DMEM/F-12 (Thermo Fisher Scientific, cat. 12634028), 10 mM HEPES (Thermo Fisher Scientific, cat. 15630080), 1X GlutaMAX supplement (Thermo Fisher Scientific, cat. 35050061), 0.1 mg/mL primocin (InvivoGen, San Diego, CA, cat. ant-pm-2), 10% defined fetal bovine serum, heat inactivated (HyClone Laboratories Inc., Logan, UT, cat. SH30070.03HI), 50% L-WRN conditioned media (ATCC, cat. CRL-3276), 1.25 mM N-Acetyl-L-cysteine (Sigma-Aldrich, cat. A9165), 10 mM nicotinamide (Sigma-Aldrich, cat. N0636), 1X B-27 supplement (Thermo Fisher Scientific, cat. 17504044), 1X N-2 supplement (Thermo Fisher Scientific, cat. […]"}
{"smiles": "Cn1ncnc1[C@H]1c2n[nH]c(=O)c3cc(F)cc(c23)N[C@@H]1c1ccc(F)cc1", "note": "+ COC1C(OC(N)=O)C(O)C(Oc2ccc3c(O)c(NC(=O)c4ccc(O)c(CC=C(C)C)c4)c(=O)oc3c2C)OC1(C)C", "values": [{"measurement": "IC50", "setting": "second compound 0.0316 µM", "result": "> 100", "unit": "nM"}, {"measurement": "IC50", "setting": "second compound 0.1 µM", "result": "> 100", "unit": "nM"}, {"measurement": "IC50", "setting": "second compound 0.316 µM", "result": "> 100", "unit": "nM"}, {"measurement": "IC50", "setting": "second compound 1 µM", "result": "> 100", "unit": "nM"}, {"measurement": "IC50", "setting": "second compound 3.16 µM", "result": "> 100", "unit": "nM"}, {"measurement": "IC50", "setting": "second compound 10 µM", "result": "> 100", "unit": "nM"}, {"measurement": "viability, T/C", "setting": "second compound 0.0316 µM, first compound 0.000316 µM", "result": 103, "unit": "%"}, {"measurement": "viability, T/C", "setting": "second compound 0.0316 µM, first compound 0.001 µM", "result": 93.1, "unit": "%"}, {"measurement": "viability, T/C", "setting": "second compound 0.0316 µM, first compound 0.00316 µM", "result": 95.5, "unit": "%"}, {"measurement": "viability, T/C", "setting": "second compound 0.0316 µM, first compound 0.01 µM", "result": 94.9, "unit": "%"}, {"measurement": "viability, T/C", "setting": "second compound 0.0316 µM, first compound 0.0316 µM", "result": 72.8, "unit": "%"}, {"measurement": "viability, T/C", "setting": "second compound 0.0316 µM, first compound 0.1 µM", "result": 78.4, "unit": "%"}, {"measurement": "viability, T/C", "setting": "second compound 0.1 µM, first compound 0.000316 µM", "result": 110, "unit": "%"}, {"measurement": "viability, T/C", "setting": "second compound 0.1 µM, first compound 0.001 µM", "result": 95.9, "unit": "%"}, {"measurement": "viability, T/C", "setting": "second compound 0.1 µM, first compound 0.00316 µM", "result": 108, "unit": "%"}, {"measurement": "viability, T/C", "setting": "second compound 0.1 µM, first compound 0.01 µM", "result": 80.2, "unit": "%"}, {"measurement": "viability, T/C", "setting": "second compound 0.1 µM, first compound 0.0316 µM", "result": 75.8, "unit": "%"}, {"measurement": "viability, T/C", "setting": "second compound 0.1 µM, first compound 0.1 µM", "result": 69.3, "unit": "%"}, {"measurement": "viability, T/C", "setting": "second compound 0.316 µM, first compound 0.000316 µM", "result": 108, "unit": "%"}, {"measurement": "viability, T/C", "setting": "second compound 0.316 µM, first compound 0.001 µM", "result": 99, "unit": "%"}, {"measurement": "viability, T/C", "setting": "second compound 0.316 µM, first compound 0.00316 µM", "result": 89.9, "unit": "%"}, {"measurement": "viability, T/C", "setting": "second compound 0.316 µM, first compound 0.01 µM", "result": 82.9, "unit": "%"}, {"measurement": "viability, T/C", "setting": "second compound 0.316 µM, first compound 0.0316 µM", "result": 67.5, "unit": "%"}, {"measurement": "viability, T/C", "setting": "second compound 0.316 µM, first compound 0.1 µM", "result": 64, "unit": "%"}, {"measurement": "viability, T/C", "setting": "second compound 1 µM, first compound 0.000316 µM", "result": 95.8, "unit": "%"}, {"measurement": "viability, T/C", "setting": "second compound 1 µM, first compound 0.001 µM", "result": 104, "unit": "%"}, {"measurement": "viability, T/C", "setting": "second compound 1 µM, first compound 0.00316 µM", "result": 101, "unit": "%"}, {"measurement": "viability, T/C", "setting": "second compound 1 µM, first compound 0.01 µM", "result": 80.5, "unit": "%"}, {"measurement": "viability, T/C", "setting": "second compound 1 µM, first compound 0.0316 µM", "result": 83.2, "unit": "%"}, {"measurement": "viability, T/C", "setting": "second compound 1 µM, first compound 0.1 µM", "result": 76.9, "unit": "%"}, {"measurement": "viability, T/C", "setting": "second compound 3.16 µM, first compound 0.000316 µM", "result": 99.4, "unit": "%"}, {"measurement": "viability, T/C", "setting": "second compound 3.16 µM, first compound 0.001 µM", "result": 102, "unit": "%"}, {"measurement": "viability, T/C", "setting": "second compound 3.16 µM, first compound 0.00316 µM", "result": 101, "unit": "%"}, {"measurement": "viability, T/C", "setting": "second compound 3.16 µM, first compound 0.01 µM", "result": 70.9, "unit": "%"}, {"measurement": "viability, T/C", "setting": "second compound 3.16 µM, first compound 0.0316 µM", "result": 82.5, "unit": "%"}, {"measurement": "viability, T/C", "setting": "second compound 3.16 µM, first compound 0.1 µM", "result": 68, "unit": "%"}, {"measurement": "viability, T/C", "setting": "second compound 10 µM, first compound 0.000316 µM", "result": 94.2, "unit": "%"}, {"measurement": "viability, T/C", "setting": "second compound 10 µM, first compound 0.001 µM", "result": 97.9, "unit": "%"}, {"measurement": "viability, T/C", "setting": "second compound 10 µM, first compound 0.00316 µM", "result": 97.7, "unit": "%"}, {"measurement": "viability, T/C", "setting": "second compound 10 µM, first compound 0.01 µM", "result": 71.6, "unit": "%"}, {"measurement": "viability, T/C", "setting": "second compound 10 µM, first compound 0.0316 µM", "result": 79.5, "unit": "%"}, {"measurement": "viability, T/C", "setting": "second compound 10 µM, first compound 0.1 µM", "result": 70.8, "unit": "%"}]}
